How the values were obtained:
[1] = molecular target: T1, Abscisic acid 8'-hydroxylase 3 (Arabidopsis thaliana, UniProt Q9FH76); test: Inhibitory activity against recombinant CYP707A3 in Arabidopsis
T1 sequence (Q9FH76 whole entry): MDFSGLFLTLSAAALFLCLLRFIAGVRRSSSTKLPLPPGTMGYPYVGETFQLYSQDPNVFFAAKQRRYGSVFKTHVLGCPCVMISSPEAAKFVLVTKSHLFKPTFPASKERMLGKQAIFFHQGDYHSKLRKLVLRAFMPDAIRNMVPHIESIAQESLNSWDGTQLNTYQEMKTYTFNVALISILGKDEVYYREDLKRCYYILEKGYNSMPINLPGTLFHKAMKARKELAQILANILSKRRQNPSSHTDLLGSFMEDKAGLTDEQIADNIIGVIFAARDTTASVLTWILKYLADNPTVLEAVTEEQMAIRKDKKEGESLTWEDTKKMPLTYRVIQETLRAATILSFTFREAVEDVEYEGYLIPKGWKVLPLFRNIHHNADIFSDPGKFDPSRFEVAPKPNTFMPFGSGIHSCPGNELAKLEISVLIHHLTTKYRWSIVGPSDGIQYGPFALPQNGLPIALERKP

Lactuca sativa = test: Effect on seed germination in lettuce (Lactuca sativa L.Cv Grand Rapids); assay type: functional, organism-based
Oryza sativa = test: Effect on seed elongation in Rice (Oryza sativa L.Cv.Nipponbare); assay type: functional, organism-based
[2] = molecular target: T1, Abscisic acid 8'-hydroxylase 3; test: Inhibitory activity against recombinant CYP707A3 in Arabidopsis at 50 uM

Row | Ki [1] [nM] | IC50 [1] [nM] | inhibition at 50 µM [2] [%] | SMILES | IC50 (Lactuca sativa) [nM] | IC50 (Oryza sativa) [nM]
1 | 170 | – | – | CC1=CC(=O)C[C@](C)(C(F)F)[C@@]1(O)/C=C/C(C)=C\C(=O)O | – | –
2 | – | – | – | CC1=CC(=O)CC(C)(C)[C@@]1(O)/C=C/C(C)=C\C(=O)O [(+)-ABSCISIC ACID] | 12000 | 2000
3 | 410 | 630 | 94 | C[C@H]1CCC[C@](C)(C(F)F)[C@@]1(O)/C=C/C=C\C(=O)O (racemic) | 150000 | > 300000
4 | 400 | 910 | 90.9 | C[C@H]1CCCC(C)(C)[C@@]1(O)/C=C/C=C\C(=O)O (racemic) | > 300000 | > 300000

Reference: ChEMBL document CHEMBL1141968, “A lead compound for the development of ABA 8'-hydroxylase inhibitors” (Bioorg Med Chem Lett, 2005)
